Laboratory results published in ChEMBL document CHEMBL6103559, “Marine actinomycetes-derived angucyclines and angucyclinones with biosynthesis and activity--past 10 years (2014-2023)” (Eur J Med Chem, 2025).
Values after ≈ are worked out from the molar mass of the structure shown.

Tests used:
Staphylococcus aureus [1] = test: Antibacterial activity against multi-drug resistant Staphylococcus aureus CCARM 3090 assessed as inhibition of bacterial growth incubated for 18 hrs by microplate reader analysis; type: functional
Salmonella typhimurium = test: Antibacterial activity against multi-drug resistant Salmonella Typhimurium CCARM 8250 assessed as inhibition of bacterial growth incubated for 18 hrs by microplate reader analysis; type: functional, Salmonella enterica subsp. enterica serovar Typhimurium; conditions: Salmonella enterica
Enterococcus faecalis = test: Antibacterial activity against multi-drug resistant Enterococcus faecalis CCARM 5172 assessed as inhibition of bacterial growth incubated for 18 hrs by microplate reader analysis; type: functional
Enterococcus faecium = test: Antibacterial activity against multi-drug resistant Enterococcus faecium CCARM 5203 assessed as inhibition of bacterial growth incubated for 18 hrs by microplate reader analysis; type: functional
Escherichia coli [2] = test: Antibacterial activity against multi-drug resistant Escherichia coli CCARM 1009 assessed as inhibition of bacterial growth incubated for 18 hrs by microplate reader analysis; type: functional
SK-HEP1 = test: Cytotoxicity against human SK-HEP1 cells by SRB assay; type: functional, cell-based
SNU-638 = test: Cytotoxicity against human SNU-638 cells by SRB assay; type: functional, cell-based
A549 [3] = test: Cytotoxicity against human A549 cells by SRB assay; type: functional, cell-based
HCT-116 [4] = test: Cytotoxicity against human HCT-116 cells by SRB assay; type: functional, cell-based
MDA-MB-231 [5] = test: Cytotoxicity against human MDA-MB-231 cells by SRB assay; type: functional, cell-based
Staphylococcus aureus [6] = test: Antibacterial activity against methicillin-resistant Staphylococcus aureus assessed as reduction in microbial growth by CLSI based broth microdilution method; type: functional
ASPC1 = test: Cytotoxicity against human ASPC1 cells assessed as reduction in cell growth by MTT assay; type: functional, cell-based
H69AR = test: Cytotoxicity against human NCI-H69AR cells assessed as reduction in cell growth by MTT assay; type: functional, cell-based
NCI-H69 = test: Cytotoxicity against human NCI-H69 cells assessed as reduction in cell growth by MTT assay; type: functional, cell-based
MDA-MB-231 [7] = test: Cytotoxicity against human MDA-MB-231 cells assessed as reduction in cell growth by MTT assay; type: functional, cell-based
K562 = test: Cytotoxicity against human K562 cells assessed as reduction in cell growth by MTT assay; type: functional, cell-based
NUGC-3 = test: Growth inhibition of human NUGC-3 cells after 48 hrs by sulforhodamine B assay; type: functional
MDA-MB-231 [8] = test: Growth inhibition of human MDA-MB-231 cells after 48 hrs by sulforhodamine B assay; type: functional
PC-3 [9] = test: Growth inhibition of human PC-3 cells after 48 hrs by sulforhodamine B assay; type: functional
ACHN = test: Growth inhibition of human ACHN cells after 48 hrs by sulforhodamine B assay; type: functional
HCT-15 = test: Growth inhibition of human HCT-15 cells after 48 hrs by sulforhodamine B assay; type: functional
NCI-H23 = test: Growth inhibition of human NCI-H23 cells after 48 hrs by sulforhodamine B assay; type: functional
PC-3 [10] = test: Cytotoxicity against human PC-3 cells; type: functional, cell-based
Jurkat = test: Cytotoxicity against human Jurkat T cells; type: functional, cell-based
MDA-MB-231 [11] = test: Cytotoxicity against human MDA-MB-231 cells assessed as reduction in cell viability incubated for 48 hrs by MTT assay; type: functional, cell-based; conditions: MDA-MB-231, 48 h
MDA-MB-435 = test: Cytotoxicity against human MDA-MB-435 cells assessed as reduction in cell viability incubated for 48 hrs by MTT assay; type: functional, cell-based; conditions: MDA-MB-435, 48 h
HCT-116 [12] = test: Cytotoxicity against human HCT-116 cells assessed as reduction in cell viability incubated for 48 hrs by MTT assay; type: functional, cell-based; conditions: HCT-116, 48 h
HepG2 [13] = test: Cytotoxicity against human HepG2 cells assessed as reduction in cell viability incubated for 48 hrs by MTT assay; type: functional, cell-based; conditions: HepG2, 48 h
MCF-10A = test: Cytotoxicity against human MCF-10A cells assessed as reduction in cell viability incubated for 48 hrs by MTT assay; type: functional, cell-based
NCI-H460 = test: Cytotoxicity against human NCI-H460 cells assessed as reduction in cell viability incubated for 48 hrs by MTT assay; type: functional, cell-based; conditions: NCI-H460, 48 h
Candida albicans = test: Antifungal activity against Candida albicans assessed as reduction in […] growth measured for 12 hrs by broth micro-dilution method; type: functional
Staphylococcus aureus [14] = test: Antibacterial activity against Staphylococcus aureus ATCC 43300 assessed as reduction in bacterial growth measured for 12 hrs by broth micro-dilution method; type: functional
HepG2 [15] = test: Cytotoxicity against human HepG2 cells assessed as reduction in cell growth incubated for 72 hrs by SRB assay; type: functional, cell-based; conditions: HepG2, 72 h
MCF7 = test: Cytotoxicity against human MCF7 cells assessed as reduction in cell growth incubated for 72 hrs by SRB assay; type: functional, cell-based; conditions: MCF7, 72 h
SF-268 = test: Cytotoxicity against human SF-268 cells assessed as reduction in cell growth incubated for 72 hrs by SRB assay; type: functional, cell-based; conditions: SF-268, 72 h
A549 [16] = test: Cytotoxicity against human A549 cells assessed as reduction in cell growth incubated for 72 hrs by SRB assay; type: functional, cell-based; conditions: A549, 72 h
PC-3 [17] = test: Cytotoxicity against human PC-3 cells assessed as reduction in cell growth by SRB assay; type: functional, cell-based
A2780 = test: Cytotoxicity against human A2780 cells assessed as reduction in cell growth by SRB assay; type: functional, cell-based
Pseudomonas aeruginosa = test: Antimicrobial activity against Pseudomonas aeruginosa CMCC(B) 10104 assessed as reduction in microbial growth measured for 18 hrs; type: functional
Escherichia coli [18] = test: Antibacterial activity against Escherichia coli CMCC(B) 44102 assessed as reduction in microbial growth measured for 18 hrs; type: functional
Bacillus subtilis = test: Antibacterial activity against Bacillus subtilis CMCC(B) 63501 assessed as reduction in microbial growth measured for 18 hrs; type: functional
Staphylococcus aureus [19] = test: Antimicrobial activity against methicillin-resistant Staphylococcus aureus assessed as reduction in microbial growth measured for 18 hrs; type: functional
Klebsiella pneumoniae = test: Antibacterial activity against Klebsiella pneumoniae CMCC(B) 46117 assessed as reduction in microbial growth measured for 18 hrs; type: functional
MDA-MB-231 [20] = test: Cytotoxicity against human MDA-MB-231 cells; type: functional, cell-based
BT-549 = test: Cytotoxicity against human BT-549 cells; type: functional, cell-based
MDA-MB-468 = test: Cytotoxicity against human MDA-MB-468 cells; type: functional, cell-based

Molecule `C[C@@H]1O[C@@H](O[C@H]2[C@H](O)C[C@H](c3ccc4c(c3O)C(=O)c3ccc(C[C@@](C)(O)CC(=O)O)c(O)c3C4=O)O[C@@H]2C)CC[C@@H]1O` has an MIC (Staphylococcus aureus [1]) of 3.12 µg/mL (≈ 5.19 µM), an MIC (Salmonella typhimurium) of 3.12 µg/mL (≈ 5.19 µM) and an MIC (Enterococcus faecalis) of 3.12 µg/mL (≈ 5.19 µM). The MIC (Enterococcus faecium) was 3.12 µg/mL (≈ 5.19 µM) and the MIC (Escherichia coli [2]) was 3.12 µg/mL (≈ 5.19 µM).

Molecule `COc1cccc2c1C(=O)O[C@H]2c1c(O)ccc2c1C(=O)C[C@@H](C)[C@@H]2O` has an IC50 (SK-HEP1) of 6.7 µM, an IC50 (SNU-638) of 6.7 µM and an IC50 (A549 [3]) of 6.7 µM. The IC50 (HCT-116 [4]) was 6.7 µM and the IC50 (MDA-MB-231 [5]) was 6.7 µM.

`CC(C)C1(O)CC(=O)c2c(cc(O)c3c2C(=O)c2cccc(O)c2C3=O)C1=O` (stereo not given) gave an MIC (Staphylococcus aureus [6]) of 3.12 µg/mL.

Molecule `CC(C)C1(O)CC(=O)c2c(cc(O)c3c2C(=O)c2cccc(O)c2C3=O)C1` (stereo not given) has an MIC (Staphylococcus aureus [6]) of 3.12 µg/mL.

Molecule `CC1=CC(=O)[C@]2(O)[C@](O)(CC[C@@]34O[C@@]23C(=O)c2cccc(O)c2C4=O)C1` has an IC50 (ASPC1) of 0.32 µM, an IC50 (H69AR) of 0.32 µM and an IC50 (NCI-H69) of 0.32 µM. It also gave an IC50 (MDA-MB-231 [7]) of 0.32 µM and an IC50 (K562) of 0.32 µM.

Molecule `CSC1=CC2=C(C(=O)c3ccc([C@H]4C[C@@H](O[C@H]5CC[C@H](O[C@H]6C[C@@H](O)[C@H](O)[C@@H](C)O6)[C@H](C)O5)[C@H](O)CO4)c(O)c3C2=O)[C@@]2(O)C(=O)C[C@](C)(O)C[C@@]12O` has a GI50 (NUGC-3) of 0.01 µM, a GI50 (MDA-MB-231 [8]) of 0.01 µM and a GI50 (PC-3 [9]) of 0.01 µM. The GI50 (ACHN) was 0.01 µM, the GI50 (HCT-15) was 0.01 µM and the GI50 (NCI-H23) was 0.01 µM.

Molecule `C[C@@]12CC(=O)[C@@]3(O)[C@](O)(CC[C@H]4C(=O)c5c(O)cccc5[C@@H](O)[C@@]43O1)C2` has an IC50 (PC-3 [10]) of 1.38 µM.

`Cc1cc(O)c2cc3c(c(O)c2c1)C(=O)c1ccc([C@H]2C[C@@H](O)[C@H](O[C@H]4CC[C@H](OC5=CC(=O)[C@@H](C)OC5)[C@H](C)O4)[C@@H](C)O2)c(O)c1C3=O` showed an IC50 (Jurkat) of 3 µM.

With `C[C@@H]1O[C@@H](O[C@H]2CC[C@H](O[C@H]3[C@H](O)C[C@H](c4ccc5c(c4O)C(=O)c4ccc6c(c4C5=O)C(=O)C[C@](C)(O)C6)O[C@@H]3C)O[C@H]2C)CCC1=O` the IC50 (MDA-MB-231 [11]) was 2.4 µM, the IC50 (MDA-MB-435) was 2.4 µM and the IC50 (HCT-116 [12]) was 2.4 µM. For the same molecule, the IC50 (HepG2 [13]) was 2.4 µM, the IC50 (MCF-10A) was 2.4 µM and the IC50 (NCI-H460) was 2.4 µM.

Molecule `CC(=O)C[C@H](SCc1cc2cc(C)cc(O)c2c2c1C(=O)c1c(O)cccc1C2=O)C(=O)O` has an MIC (Candida albicans) of 20 µM (≈ 9.29 µg/mL) and an MIC (Staphylococcus aureus [14]) of 20 µM (≈ 9.29 µg/mL).

With `Cc1cc(O)c2c(c1)C1c3c-2c(O)c2cccc(O)c2c3OC(=O)C1c1c[nH]c2ccccc12` (stereo not given) the IC50 (HepG2 [15]) was 7 µM, the IC50 (MCF7) was 7 µM and the IC50 (SF-268) was 7 µM. The IC50 (A549 [16]) was 7 µM.

With `CC(=O)N[C@@H](CSc1cc2cc(C)cc(O)c2c2c1C(=O)c1c(O)cccc1C2=O)C(=O)O` the IC50 (PC-3 [17]) was 19.4 µM, the MIC (Candida albicans) was 20 µM (≈ 9.31 µg/mL) and the IC50 (A2780) was 10.2 µM. The MIC (Staphylococcus aureus [14]) was 20 µM (≈ 9.31 µg/mL).

`CO[C@@H]1C[C@@H](O[C@H]2C=C(C)[C@@H](O)[C@]3(O)[C@@H](OC(=O)O)[C@@H](O)C4=C(C(=O)c5ccc([C@H]6C[C@@H](O[C@H]7C[C@](C)(O)[C@H](O[C@H]8CC[C@H](OC(N)=O)[C@@H](C)O8)[C@@H](C)O7)[C@@H](O)[C@@H](C)O6)c(O)c5C4=O)[C@]23O)O[C@@H](C)[C@H]1O` was tested, and the MIC (Pseudomonas aeruginosa) was 16 µg/mL, the MIC (Escherichia coli [18]) was 16 µg/mL and the MIC (Bacillus subtilis) was 8 µg/mL. The MIC (Staphylococcus aureus [19]) was 16 µg/mL and the MIC (Klebsiella pneumoniae) was 16 µg/mL.

With `CO[C@@H]1C[C@@H](O[C@H]2C=C(C)C[C@]3(O)[C@@H](OC(=O)O)[C@@H](O)C4=C(C(=O)c5ccc([C@H]6C[C@@H](O[C@H]7C[C@](C)(O)[C@H](O[C@H]8CC[C@H](OC(N)=O)[C@@H](C)O8)[C@@H](C)O7)[C@@H](O)[C@@H](C)O6)c(O)c5C4=O)[C@]23O)O[C@@H](C)[C@H]1O` the MIC (Pseudomonas aeruginosa) was 16 µg/mL, the MIC (Escherichia coli [18]) was 16 µg/mL and the MIC (Bacillus subtilis) was 8 µg/mL. It also gave an MIC (Staphylococcus aureus [19]) of 16 µg/mL and an MIC (Klebsiella pneumoniae) of 16 µg/mL.

Molecule `CN[C@@H]1C[C@H](c2c(O)c3c(c4c(O)cc(C)cc24)C(=O)c2cccc(O)c2C3=O)O[C@H](C)[C@H]1O` has an IC50 (MDA-MB-231 [20]) of 0.6 µM, an IC50 (BT-549) of 0.6 µM and an IC50 (MDA-MB-468) of 0.6 µM.

`CC(C)c1cc(=O)c2c(cc(O)c3c(=O)c4c(O)cccc4c(=O)c32)c1=O` was tested, and the MIC (Staphylococcus aureus [6]) was 3.12 µg/mL.
